Read-outs that look alike come from different tables or passages of the source.
What was measured:
[1] = test system: F-actin; assay: Protein co-sedimentation / actin bundling (differential centrifugation, SDS gel); format: biochemical, human; details: for bundling of F-actin: co-sedimentation, F-actin with Tau (1:1) or Tau peptides (1:10, Tau(254–268) 1:30), room temperature 30 min
Experimental: The ability of Tau to bundle F-actin was studied using electron microscopy (EM). […] Next, Tau/F-actin co-sedimentation was performed. The same sample, which was used for EM, was exposed to two sequential steps of centrifugation, in which single-actin filaments and actin bundles were collected separately. Subsequently, aliquots from supernatant (SN), filament (PF), and bundle (PB) fractions were loaded in a 4–20% gradient gel (Fig. 1c).
(§1) The sample was then dialyzed against General Actin Buffer (GAB; 5 mM TrisHCl pH 8.0, 0.2 mM CaCl2, 0.2 mM ATP, 0.5 mM DTT) or NMR buffer (50 mM NaH2PO4/Na2HPO4 pH 6.8, 10 mM NaCl, 1 mM DTT, 10% (v/v) D2O) to be used for electron microscopy or NMR experiments, respectively. In case of actin, lyophilized actin was reconstituted to 10 mg ml^−1 by adding 100 μl of distilled water to be in the following buffer: GAB with 5% (w/v) sucrose and 1% (w/v) dextran. Subsequently, the sample was spun at 18,400 × g for 15 min, the supernatant was kept, and actin was polymerized by incubating 0.4 mg ml^−1 G-actin in GAB and supplemented with polymerization buffer (1/10th the volume; 100 mM Tris HCl pH 7.5, 20 mM MgCl2, 500 mM KCl, 10 mM ATP) for 1 h at room temperature. Afterwards, the sample was centrifuged at 100,000 × g during 1 h at 4 °C. Filaments were collected at the bottom of the ultracentrifuge tube. The pellet was then resuspended in GAB or NMR Buffer as required.
Mixtures of F-actin with Tau (1:1) or Tau peptides (1:10 molar ratio) were incubated at room temperature for 30 min. In case of the shorter peptide Tau(254–268), a 1:30 ratio was used. Centrifugation was performed in two steps. First, a spin rate of 5000 × g was used during 15 min to collect bundles of F-actin (PB) at the bottom of the tube. Secondly, the remaining sample was centrifuged at 100,000 × g during 1 h collecting actin filaments (PF). The final supernatant (SN) was also kept for later usage. Pellets were resuspended in 80 μl of GAB. A volume of 25 μl of sample were taken for EM while the remaining 55 μl were loaded in a 4–20% gradient SDS gel, which was colored with […] and denatured with SDS and heat.

[2] = test system: F-actin; assay: Transfer NOE (2D NOESY) of Tau peptides with F-actin; format: binding, human; details: 27 μM F-actin, 800 μM peptide, NMR buffer pH 6.8 with 0.2 mM ATP and 0.2 mM CaCl2, 278 K
Text: Instead, short hydrophobic Tau segments, which are separated from each other by flexible residues, bind dynamically to actin’s hydrophobic pocket (Fig. 2). […] NMR Nuclear overhauser effect (NOE) measurements that are sensitive for three-dimensional structure were subsequently performed. […] This approach is called transfer NOE and has been widely used to determine the structure of small ligands in complex with high molecular weight binding partners.
Two-dimensional NOESY experiments with five different mixing times ranging from 50 up to 250 ms were recorded for Tau(254–290) in the presence of F-actin. […] The NOE peaks, which were observed only in the presence of F-actin, provide experimental restraints for the structure of Tau(254–290) in complex with F-actin.
as §1
NMR spectra were acquired on Bruker Avance800 and 900 MHz NMR spectrometers at 278 K to reduce solvent exchange. 2D ^1H-^15N HSQC spectra consisted of 64 scans, spectral windows of 12 ppm in the proton and 25 ppm in the nitrogen dimension. 2D NOESY experiments were acquired using 88 scans, 12 ppm spectral width and a time domain of 512 and 2048 points in the first and second dimension, respectively. To generate buildup curves, mixing times of 50, 80, 100, 150, and 250 ms were used.
For NOESY experiments, 27 μM of F-actin were mixed with 800 μM of Tau peptide in NMR buffer supplemented with 0.2 mM ATP and 0.2 mM CaCl2. A reference experiment was performed in similar conditions only with 800 μM peptide. For resonance assignment, a 2D TOCSY experiment with a mixing time of 75 ms was performed. All data were processed using NMRPipe[76] and analyzed using Sparky[77].

[3] = test system: F-actin; assay: Electron microscopy of actin bundles; format: biochemical, human; details: uranyl acetate stain, room temperature
Experimental: The ability of Tau to bundle F-actin was studied using electron microscopy (EM). The diameter of single actin filaments was approximately 7 nm, in agreement with previous studies, [30]. […] Actin bundles ranged between 20 and 150 nm in diameter. Next, Tau/F-actin co-sedimentation was performed. The same sample, which was used for EM, was exposed to two sequential steps of centrifugation, in which single-actin filaments and actin bundles were collected separately. Subsequently, aliquots from supernatant (SN), filament (PF), and bundle (PB) fractions were loaded in a 4–20% gradient gel (Fig. 1c). […] In addition, ~8% of Tau molecules were bound to single filaments, while ~29% of Tau was found together with actin bundles.
The sample was then dialyzed against General Actin Buffer (GAB; 5 mM TrisHCl pH 8.0, 0.2 mM CaCl2, 0.2 mM ATP, 0.5 mM DTT) or NMR buffer (50 mM NaH2PO4/Na2HPO4 pH 6.8, 10 mM NaCl, 1 mM DTT, 10% (v/v) D2O) to be used for electron microscopy or NMR experiments, respectively. […]
Samples were bound to a glow discharged carbon foil covered copper grid. […] The samples were evaluated at room temperature using a CM 120 transmission electron microscope (FEI, Eindhoven, and The Netherlands) and a TemCam F416 CMOS camera (TVIPS, Gauting, Germany).

[4] = molecular target: T1, NBD-labeled F-actin (Oryctolagus cuniculus, UniProt P68135); assay: F-actin binding assay (NBD fluorescence change); details: NBD-labeled, phalloidin-stabilized F-actin (α-skeletal muscle actin); 0.2 μM (Results) / 0.25 µM (Methods) F-actin; GAB (5 mM TrisHCl pH 8.0, 0.2 mM CaCl2, 0.2 mM ATP, 0.5 mM DTT), 25 °C; single-binding site fit; s.d. from three experiments; read-out: dissociation constant (Kd) of Tau or Tau fragment for F-actin
T1 construct: NBD-conjugated actin from α-skeletal muscle was bought from Hypermol; purchased Hypermol (Bielefeld, Germany); host or cells: α-skeletal muscle (tissue-derived (so in the source))
Experimental: In order to gain insight into the affinity of the Tau/F-actin-interaction, the change in fluorescence of 7-chloro-4-nitrobenz-2-oxa-1,3-diazole (NBD)-labeled F-actin upon addition of Tau was followed[31]. 0.2 μM of NBD-labeled and phalloidin-stabilized F-actin were mixed with increasing amounts of Tau (Fig. 1d and Supplementary Fig. 1).
NBD-conjugated actin from α-skeletal muscle was bought from Hypermol (Bielefeld, Germany). In this experiment, 7-chloro-4-nitrobenz-2-oxa-1,3-diazole (NBD)-labeled G-actin was polymerized starting from 0.4 mg ml^−1 of the conjugated actin supplemented with 10-fold excess of phalloidin (catalog no. P2141, Sigma-Aldrich) to provide stable filaments. […] The change of fluorescence intensity from NBD was followed in a Cary Eclipse fluorescence spectrophotometer (Agilent Technologies, Inc.). […] As reported by Hertzog, M. et al.[31] the normalized decrease in fluorescence (equation 1) was analyzed and fitted by using equation 2.1 E=F-F0/Fmax-F0 2 E=1/2C+1/2Z-1/2C+Z^2-4Z with Z=[partner]/[F-actin]andC=1+Kd/[F-actin]
Affinity of Tau and Tau fragments for binding to NBD-labeled F-actin. (a) Change of NBD fluorescence upon addition of increasing concentrations of Tau and Tau fragments. […]
(b) Bar diagram showing Kd values, which were determined based on the quenching effect of Tau/Tau fragments on the fluorescent properties of NBD-labeled F-actin. […]

[5] = test system: F-actin; assay: Titration of F-actin into 15N-Tau, two-state Bloch-McConnell fit (peer review file); format: binding, human; details: grid-search pushed to the edge of the parameter space, fits were not good
Text: (4 pictures or pasted objects on this page, not shown here)

[6] = molecular target: F-actin; details: phosphate buffer; read-out: Kd of Tau/F-actin, previously reported; cited from earlier work
Experimental: 0.2 μM of NBD-labeled and phalloidin-stabilized F-actin were mixed with increasing amounts of Tau (Fig. 1d and Supplementary Fig. 1). […] Other stoichiometries, however, cannot be excluded. The derived dissociation constant is lower than a previously reported value of 241 ± 43 nM[7] ...

[7] = test system: Tau; assay: Binding of cofilin to Tau (HSQC); set-up: species or system human; details: 15N-Tau/F-actin 1:1.5, 10-fold excess of cofilin
Experimental: In order to gain insight into how Tau regulates the polymerization and structure of F-actin, we sought to obtain information about the Tau-binding site on F-actin. […] One of these binding partners is cofilin, a 21 kDa eukaryotic protein, which binds to F-actin with a K d < 0.05 µM[33] and results in disassembly of F-actin[34], [35]. […] To test if the binding site of Tau on F-actin overlaps with that of cofilin, we added a 10-fold excess of cofilin to a solution containing ^15N-labeled Tau and 1.5-fold excess (with respect to Tau) of F-actin. For the resulting mixture, a ^1H-^15N HSQC spectrum was recorded. […] Subsequently, we repeated the actin/Tau co-sedimentation assay in the presence of cofilin.
Human Tau (2N4R) was expressed in the E. coli strain BL21 (DE3) (MERCK Millipore) using the vector pNG2 as described. The bacterial pellet was resuspended in lysis buffer (50 mM Mes, 500 mM NaCl, 1 mM MgCl2, 1 mM EGTA, 5 mM DTT, pH 6.8) and supplemented with a protease inhibitor mixture. Cells were disrupted using a French pressure cell and subsequently boiled for 20 min. […]
For HSQC-based competition experiments, 20 μM of ^15N-labeled Tau were mixed with 30 μM F-actin in NMR buffer supplemented with 0.2 mM ATP and 0.2 mM CaCl2 (sample 2). […] Competition was monitored by reading out the variation in signal broadening in 2D ^1H-^15N HSQC spectra of Tau.

[8] = test system: F-actin; assay: Protein co-sedimentation / actin bundling (differential centrifugation, SDS gel); format: biochemical, human; details: molar ratio 1.5:1:10
[9] = molecular target: F-actin; details: read-out: Kd of cofilin for F-actin; cited from earlier work
Experimental: In order to gain insight into how Tau regulates the polymerization and structure of F-actin, we sought to obtain information about the Tau-binding site on F-actin. […] One of these binding partners is cofilin, a 21 kDa eukaryotic protein, which binds to F-actin with a K d < 0.05 µM[33] and results in disassembly of F-actin[34], [35].

**Q.** Which “bundling of F-actin” value [1] does the source give for “K18: artificial fragment of Tau which comprises all four repeats (residues Gln244–Glu372 plus initial Met243)” here?
**A.** Its value is “capable of bundling F-actin”.

**Q.** What does the source list for “Tau(254–268): contains the residues which form the helix in the N-terminal half of Tau(254–290) (Ac-KNVKSKIGSTENLKH-NH2)”?
**A.** bundling of F-actin [1]: not able to bundle F-actin; transfer NOE cross-peaks in presence of F-actin [2]: folds into an α-helix (residues 259–265) in complex with F-actin

**Q.** With “Tau(254–284): Tau peptide, residues 254–284” as the substance, how does the “bundling of F-actin” value [1] read?
**A.** Its value is “promoted actin bundles”.

**Q.** For “Tau(254–290): synthetic Tau peptide, acetyl and amide protection groups at the N- and C terminus”, which “bundling of F-actin (electron microscopy)” value [3] is on record?
**A.** The value was “bundles filaments”.

**Q.** And the “transfer NOE cross-peaks in presence of F-actin” value [2]?
**A.** The value was “additional NOE cross-peaks were observed”.

**Q.** Which results are given for “Tau(292–319): Tau peptide comprising the residues of repeat R2 and R3”?
**A.** bundling of F-actin [1]: promotes bundling of actin filaments; transfer NOE cross-peaks in presence of F-actin [2]: revealed NOEs specific for the Tau(292–319)/F-actin complex

**Q.** Which Kd [4] does the source give for “Tau: full-length human Tau (2N4R), expressed in E. coli” here?
**A.** Its Kd is 60 ± 10 nM.

**Q.** What about the “Tau found together with actin bundles (PB)” value ([1]; F-actin:Tau 1:1, room temperature 30 min, pellet of 5000 × g, 15 min) of the same substance?
**A.** The value was ~ 29%.

**Q.** And the “Tau bound to single filaments (PF)” value ([1]; F-actin:Tau 1:1, room temperature 30 min, pellet of 100,000 × g, 1 h)?
**A.** The value was ~ 8%.

**Q.** What about the “Tau remaining in supernatant (SN)” value ([1]; F-actin:Tau 1:1, room temperature 30 min, quantification of gel band intensity, supernatant after 100,000 × g) of the same substance?
**A.** Its value is ~ 63%.

**Q.** And the “bundling of F-actin” value [1]?
**A.** The value was “bundles actin filaments”.

**Q.** What about the “bundling of F-actin (electron microscopy)” value [3] of the same substance?
**A.** The value was “caused bundling of F-actin”.

**Q.** What about the “kon, local two-state NMR fit (residues I260, L266, G287/V287)” value [5] of the same substance?
**A.** The value was ~10^7 M-1s-1.

**Q.** And the Kd [6]?
**A.** Its Kd is 241 ± 43 nM.

**Q.** With “cofilin: human cofilin (catalog no. CF01, Cytoskeleton, Inc.), 21 kDa eukaryotic actin-binding protein” as the substance, how does the “binding of cofilin to Tau” value [7] read?
**A.** Its value is “does not bind to Tau”.

**Q.** And the “disassembly of actin filaments by cofilin” value ([8]; F-actin + Tau + cofilin)?
**A.** The value was “actin filaments were not disassembled by cofilin”.

**Q.** And the “effect of cofilin on Tau co-sedimentation with F-actin” value [8]?
**A.** Its value is “decreased the amount of Tau that co-sedimented with F-actin”.

**Q.** What about the Kd [9] of the same substance?
**A.** The Kd was under 50 nM.

From article PMC5719408, “Multivalent cross-linking of actin filaments and microtubules through the microtubule-associated protein Tau” (Nature Communications, 2017)
